According to patent US20240238220A1, “METHODS FOR TREATING CANCERS” (priority 2023, published 2024):

How the values were obtained:
[1] = test system: lung cancer cells, A549, H1299, H1975, CL1-5, and PC-9; assay: methylene blue dye assay, growth of lung cancer cells; assay type: cell-based; conditions: Homo sapiens; range over A549, H1299, H1975, CL1-5, PC-9; treated 1-5 μM for 1, 2 or 3 days; read-out: IC50 values (50% inhibition of cell viability)
Source text: The effects of Compound A and Compound B on the growth of tumor cells were investigated in A549 (adenocarcinomic human alveolar epithelial cell), H1299 (human non-small cell lung carcinoma cell), H1975 (human non-small cell lung carcinoma cell), CL1-5 (human lung adenocarcinoma cell), and PC-9 (human lung adenocarcinoma cell) cell lines. A methylene blue dye assay (G. J. Finlay et al., Anal Biochem. 1984 June; 139(2):272-7) (11) was used to evaluate the inhibitory effect of Compound A and Compound B. Briefly, each of the cell lines with a logarithmic growth phase was cultured at a density of 2×10^4 to 4×10^4 cells per well in a 24-well plate, and treated with 1-5 μM of Compound A or Compound B for 1, 2, or 3 days. At the end of the incubation period, cells were fixed and stained with 0.5% methylene blue containing 50% ethanol for 30 minutes and then were washed and dried. The resulting colored residues were dissolved in 1% N-lauroyl-sarcosine, and optical density was read at 595 nm using a microplate reader. The IC50 value resulting from 50% inhibition of cell viability was calculated graphically as a comparison with vehicle control group. Each point represents the average of at least 3 independent experiments run in quadruple.

H1299 tumor = assay: human NSCLC xenograft model bearing H1299 tumor; assay type: in vivo, Nude mice; conditions: oral gavage 120 mg/Kg/day; for tumor regression: 5 consecutive days of the week
Method: (§1) The anti-tumor activity of Compound A was evaluated in the human NSCLC xenograft model. Nude mice and C57BL/6 mice were subcutaneously inoculated with H1299 (1×10^6) and mouse lung epithelial cancer cells, TC-1 (2×10^5), respectively. Tumor volumes were measured beginning on day 4 or 5 after tumor inoculation according to the relationship (L×D^2)/2, where L is the long dimension and D is the short dimension. The xenograft tumor-bearing mice were administered by oral gavage with compound A (dissolved in 10% dimethyl sulfoxide (DMSO)/cottonseed oil) at 120 mg/Kg/day for consecutive 5 days of the week. Animal body weight and tumor size were measured twice weekly. ANOVA followed by a multiple comparison Scheff test was conducted to determine significant differences among the treatment group at p<0.05.

[2] = test system: TC-1 tumor (mouse lung epithelial cancer cells); assay: mouse model bearing TC-1 tumor; assay type: in vivo, C57BL/6 mice; conditions: oral gavage 120 mg/Kg/day, p<0.05
Method: as §1

IC50 [1] [nM] | Compound | inhibitory activity on tumor (H1299 tumor; H1299 tumor, p<0.05) | tumor regression (H1299 tumor; day 35) | tumor regression (H1299 tumor; day 50) | inhibitory activity on tumor [2]
2000 to 3300 | COc1ccc(/C=C/C(=O)C(CC2CCC2)C(=O)/C=C/c2ccc(OC)c(OC)c2)cc1OC [Compound B, 4-(cyclobutylmethyl)-1,7-bis(3,4-dimethoxyphenyl)hepta-1,6-diene-3,5-dione] |  |  |  | 
1500 to 3000 | COc1ccc(/C=C/C(=O)C(F)(CC2CCC2)C(=O)/C=C/c2ccc(OC)c(OC)c2)cc1OC [Compound A, 4-fluoro-4-cyclobutylmethyl-1,7-bis(3,4-dimethoxyphenyl)hepta-1,6-diene-3,5-dione] | statistically significant inhibitory activity | around 36% | around 43% | statistically significant inhibitory activity
